Results taken from the supplement of paper PMC13207355.

Tests used:
Details in all cases: exposure time: 72 h
E21 [1] = patient-derived glioblastoma stem cells of mesenchymal subtype; experiment: phenotypic distance (Euclidean, principal components) from DMSO controls (arbitrary units); higher = stronger morphological change
FT3469 [2] = normal neural stem cell line; experiment: as above
E28 [3] = patient-derived glioblastoma stem cells of classical subtype; experiment: as above
E57 [4] = patient-derived glioblastoma stem cells of mesenchymal subtype; experiment: as above
E34 [5] = patient-derived glioblastoma stem cells of proneural subtype; experiment: as above
E13 [6] = patient-derived glioblastoma stem cells of classical subtype; experiment: as above
E31 [7] = patient-derived glioblastoma stem cells of proneural subtype; experiment: as above
E21 [8] = experiment: surviving fraction (nuclei count normalised to DMSO); higher = more cells surviving (less toxic)
FT3469 [9] = experiment: as above
E28 [10] = experiment: as above
E57 [11] = experiment: as above
E34 [12] = experiment: as above
E13 [13] = experiment: as above
E31 [14] = experiment: as above
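Throughout, for phenotypic distance (Euclidean, principal components) from DMSO controls: cell Painting imaging in 384-well plates, CellProfiler features reduced to at least 20 principal components, Euclidean distance versus same-plate DMSO vehicle wells (0.1% v/v), median over six images per well.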
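Throughout, for surviving fraction (nuclei count normalised to DMSO): nuclei counted by high-content imaging of Hoechst-stained cells in laminin-coated 384-well plates, relative to 0.1% DMSO vehicle wells, with staurosporine as cell-death control.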

COc1cc2c[n+](C)c3c4cc5c(cc4ccc3c2cc1OC)OCO5 [Nitidine chloride]
Details	phenotypic distance	surviving fraction
E13 [6], 4.1 nM	0.679	–
E13 [6], 12.3 nM	2.36	–
E13 [6], 37 nM	0.78	–
E13 [6], 111.1 nM	0.431	–
E13 [6], 333.3 nM	1.36	–
E13 [6], 1000 nM	1.35	–
E13 [6], 3000 nM	4.56	–
E13 [13], 4.1 nM	–	1.02
E13 [13], 12.3 nM	–	0.937
E13 [13], 37 nM	–	1.01
E13 [13], 111.1 nM	–	1.01
E13 [13], 333.3 nM	–	0.836
E13 [13], 1000 nM	–	0.752
E13 [13], 3000 nM	–	0.397
E21 [1], 4.1 nM	0.786	–
E21 [1], 12.3 nM	0.739	–
E21 [1], 37 nM	1.02	–
E21 [1], 111.1 nM	1.99	–
E21 [1], 333.3 nM	3.87	–
E21 [1], 1000 nM	4.46	–
E21 [1], 3000 nM	5.64	–
E21 [8], 4.1 nM	–	0.997
E21 [8], 12.3 nM	–	0.869
E21 [8], 37 nM	–	0.959
E21 [8], 111.1 nM	–	0.703
E21 [8], 333.3 nM	–	0.302
E21 [8], 1000 nM	–	0.295
E21 [8], 3000 nM	–	0.066
E28 [3], 4.1 nM	0.661	–
E28 [3], 12.3 nM	0.746	–
E28 [3], 37 nM	1.02	–
E28 [3], 111.1 nM	1.34	–
E28 [3], 333.3 nM	2.74	–
E28 [3], 1000 nM	2.93	–
E28 [3], 3000 nM	3.24	–
E28 [10], 4.1 nM	–	0.955
E28 [10], 12.3 nM	–	0.92
E28 [10], 37 nM	–	0.878
E28 [10], 111.1 nM	–	0.754
E28 [10], 333.3 nM	–	0.506
E28 [10], 1000 nM	–	0.575
E28 [10], 3000 nM	–	0.216
E31 [7], 4.1 nM	0.468	–
E31 [7], 12.3 nM	0.762	–
E31 [7], 37 nM	0.828	–
E31 [7], 111.1 nM	1.43	–
E31 [7], 333.3 nM	1.85	–
E31 [7], 1000 nM	2.23	–
E31 [7], 3000 nM	3.9	–
E31 [14], 4.1 nM	–	0.905
E31 [14], 12.3 nM	–	1.08
E31 [14], 37 nM	–	0.804
E31 [14], 111.1 nM	–	0.738
E31 [14], 333.3 nM	–	0.582
E31 [14], 1000 nM	–	0.599
E31 [14], 3000 nM	–	0.19
E34 [5], 4.1 nM	0.655	–
E34 [5], 12.3 nM	0.652	–
E34 [5], 37 nM	0.901	–
E34 [5], 111.1 nM	1.63	–
E34 [5], 333.3 nM	1.88	–
E34 [5], 1000 nM	2.46	–
E34 [5], 3000 nM	3.01	–
E34 [12], 4.1 nM	–	1.08
E34 [12], 12.3 nM	–	1.06
E34 [12], 37 nM	–	0.769
E34 [12], 111.1 nM	–	1.08
E34 [12], 333.3 nM	–	0.743
E34 [12], 1000 nM	–	0.706
E34 [12], 3000 nM	–	0.559
E57 [4], 4.1 nM	0.377	–
E57 [4], 12.3 nM	0.436	–
E57 [4], 37 nM	0.309	–
E57 [4], 111.1 nM	0.645	–
E57 [4], 333.3 nM	1.22	–
E57 [4], 1000 nM	1.25	–
E57 [4], 3000 nM	7	–
E57 [11], 4.1 nM	–	0.996
E57 [11], 12.3 nM	–	0.919
E57 [11], 37 nM	–	0.965
E57 [11], 111.1 nM	–	0.946
E57 [11], 333.3 nM	–	0.91
E57 [11], 1000 nM	–	0.923
E57 [11], 3000 nM	–	0.216
FT3469 [2], 4.1 nM	0.874	–
FT3469 [2], 12.3 nM	0.863	–
FT3469 [2], 37 nM	0.732	–
FT3469 [2], 111.1 nM	1.27	–
FT3469 [2], 333.3 nM	2.17	–
FT3469 [2], 1000 nM	2.35	–
FT3469 [2], 3000 nM	2.82	–
FT3469 [9], 4.1 nM	–	0.854
FT3469 [9], 12.3 nM	–	0.86
FT3469 [9], 37 nM	–	0.854
FT3469 [9], 111.1 nM	–	0.752
FT3469 [9], 333.3 nM	–	0.679
FT3469 [9], 1000 nM	–	0.646
FT3469 [9], 3000 nM	–	0.601

COC(=O)Nc1nc2cc(C(=O)c3cccs3)ccc2[nH]1 [Nocodazole]
Details	phenotypic distance	surviving fraction
E13 [6], 4.11523 nM	6.13	–
E13 [6], 12.34567901 nM	4.73	–
E13 [6], 37.037 nM	5.56	–
E13 [6], 111.1111111 nM	6.89	–
E13 [6], 333.333 nM	6.42	–
E13 [6], 1000 nM	6.56	–
E13 [6], 3000 nM	9.87	–
E13 [13], 4.11523 nM	–	0.286
E13 [13], 12.34567901 nM	–	0.309
E13 [13], 37.037 nM	–	0.238
E13 [13], 111.1111111 nM	–	0.193
E13 [13], 333.333 nM	–	0.228
E13 [13], 1000 nM	–	0.186
E13 [13], 3000 nM	–	0.178
E21 [1], 4.11523 nM	4.87	–
E21 [1], 12.34567901 nM	4.76	–
E21 [1], 37.037 nM	8.31	–
E21 [1], 111.1111111 nM	9.95	–
E21 [1], 333.333 nM	9.8	–
E21 [1], 1000 nM	8.46	–
E21 [1], 3000 nM	9.75	–
E21 [8], 4.11523 nM	–	0.506
E21 [8], 12.34567901 nM	–	0.54
E21 [8], 37.037 nM	–	0.116
E21 [8], 111.1111111 nM	–	0.101
E21 [8], 333.333 nM	–	0.118
E21 [8], 1000 nM	–	0.0883
E21 [8], 3000 nM	–	0.083
E28 [3], 4.11523 nM	2.22	–
E28 [3], 12.34567901 nM	2.63	–
E28 [3], 37.037 nM	2.97	–
E28 [3], 111.1111111 nM	3.74	–
E28 [3], 333.333 nM	3.59	–
E28 [3], 1000 nM	4.6	–
E28 [3], 3000 nM	5.85	–
E28 [10], 4.11523 nM	–	0.698
E28 [10], 12.34567901 nM	–	0.609
E28 [10], 37.037 nM	–	0.531
E28 [10], 111.1111111 nM	–	0.353
E28 [10], 333.333 nM	–	0.428
E28 [10], 1000 nM	–	0.267
E28 [10], 3000 nM	–	0.297
E31 [7], 4.11523 nM	4.08	–
E31 [7], 12.34567901 nM	3.99	–
E31 [7], 37.037 nM	5.49	–
E31 [7], 111.1111111 nM	6.17	–
E31 [7], 333.333 nM	5.43	–
E31 [7], 1000 nM	11.1	–
E31 [7], 3000 nM	12	–
E31 [14], 4.11523 nM	–	0.262
E31 [14], 12.34567901 nM	–	0.174
E31 [14], 37.037 nM	–	0.135
E31 [14], 111.1111111 nM	–	0.0743
E31 [14], 333.333 nM	–	0.0743
E31 [14], 1000 nM	–	0.058
E31 [14], 3000 nM	–	0.0327
E34 [5], 4.11523 nM	3.24	–
E34 [5], 12.34567901 nM	3.27	–
E34 [5], 37.037 nM	4.43	–
E34 [5], 111.1111111 nM	4.49	–
E34 [5], 333.333 nM	5.97	–
E34 [5], 1000 nM	8.12	–
E34 [5], 3000 nM	7.56	–
E34 [12], 4.11523 nM	–	0.543
E34 [12], 12.34567901 nM	–	0.541
E34 [12], 37.037 nM	–	0.488
E34 [12], 111.1111111 nM	–	0.469
E34 [12], 333.333 nM	–	0.394
E34 [12], 1000 nM	–	0.316
E34 [12], 3000 nM	–	0.433
E57 [4], 4.11523 nM	5.26	–
E57 [4], 12.34567901 nM	5.57	–
E57 [4], 37.037 nM	7.85	–
E57 [4], 111.1111111 nM	6.23	–
E57 [4], 333.333 nM	6.48	–
E57 [4], 1000 nM	6.95	–
E57 [4], 3000 nM	6.12	–
E57 [11], 4.11523 nM	–	0.452
E57 [11], 12.34567901 nM	–	0.418
E57 [11], 37.037 nM	–	0.143
E57 [11], 111.1111111 nM	–	0.067
E57 [11], 333.333 nM	–	0.0805
E57 [11], 1000 nM	–	0.0687
E57 [11], 3000 nM	–	0.104
FT3469 [2], 4.11523 nM	3.38	–
FT3469 [2], 12.34567901 nM	3.38	–
FT3469 [2], 37.037 nM	3.11	–
FT3469 [2], 111.1111111 nM	2.9	–
FT3469 [2], 333.333 nM	3.84	–
FT3469 [2], 1000 nM	5.03	–
FT3469 [2], 3000 nM	4.79	–
FT3469 [9], 4.11523 nM	–	0.562
FT3469 [9], 12.34567901 nM	–	0.573
FT3469 [9], 37.037 nM	–	0.619
FT3469 [9], 111.1111111 nM	–	0.474
FT3469 [9], 333.333 nM	–	0.582
FT3469 [9], 1000 nM	–	0.382
FT3469 [9], 3000 nM	–	0.353
